Reference: patent US12083089B2, “Compositions and methods for stimulating ventilatory and/or respiratory drive” (CASE WESTERN RESERVE UNIVERSITY, priority 2015, dated 2024)

Columns and labels:
adult male rats = assay: Von Frey Test, morphine 1 mg/kg; type: in vivo, rat; conditions: given alone, morphine 1 mg/kg IV
[1] = system: freely moving adult male Sprague-Dawley rats; assay: Whole-body plethysmography of ventilatory parameters in morphine-treated rats; conditions: morphine 10 mg/kg IV; for EF50, ml/sec - Total Response (% change) / Expiratory Drive (TV/Te), ml/sec - Total Response (% change) / Expiratory Time (Te), sec - Total Response (% change) / Frequency, breaths/min - Total Response (% change) / Inspiratory Drive (TV/Ti), ml/sec - Total Response (% change) / Inspiratory Time (Ti), sec - Total Response (% change) / Inspiratory Time/Expiratory Time - Total Response (% change) / Minute Ventilation, ml/min - Total Response (% change) / Peak Expiratory Flow, ml/sec - Total Response (% change) / Peak Expiratory Flow/Peak Inspiratory Flow - Total Response (% change) / Peak Inspiratory Flow, ml/sec - Total Response (% change) / Tidal Volume (TV), ml - Total Response (% change): over the 15 min before drug injection
Method: Permissions, rats, surgical procedures and blinding of protocols. All studies were carried out in accordance with the NIH Guide for the Care and Use of Laboratory Animals (NIH Publication No. […]) revised in 1996. The protocols were approved by the Animal Care and Use Committees of the University of Virginia, Case Western Reserve University and Loma Linda University. In addition, all studies were carried out in compliance with the ARRIVE (Animal Research: Reporting of In Vivo Experiments) guidelines. Adult male Sprague-Dawley rats (Harlan, Madison, WI, USA) were implanted with jugular vein catheters under 2% isoflurane anesthesia and some rats received femoral arterial catheters. The rats were allowed at least four days to recover from surgery before use. All arterial catheters were flushed daily with heparin solution (50 units of heparin in phosphate-buffered saline at 0.1 M, pH 7.4). All catheters were flushed with phosphate-buffered saline (0.1 M, pH 7.4) approximately four hours before commencement of the experiments. All studies were performed in a quiet laboratory with relative humidity of 49±2% and room temperature of 21.4±0.2° C. […] Also, please note that the antinociception and ventilatory studies were done in separate groups of rats so as to not complicate the respiratory measurements. The recording (plethysmography, antinociception) sessions and the arterial blood gas assays were done by a particular investigator who administered the opioid, vehicle or test drug such as d-cystine diME. The syringes containing the vehicle or test drug were made up by another investigator, such that the investigator running the actual experiment was blinded to the treatment protocol. In every case, the data files resulting from a particular study were first collated and analyzed by another investigator in the group.
Ventilatory parameters were recorded in freely moving rats by whole body plethysmography (PLY3223; Data Sciences International, St. Paul, MN). The rats were placed in individual chambers and given 60 min to acclimatize to allow true resting ventilatory parameters to be established. […] The rats received another injection of vehicle or 1-NACme (500 μmol/kg, IV) 15 min later and ventilatory parameters were recorded for a further 60 min.
The provided software (Fine Pointe, BUXCO) constantly corrected digitized values for changes in chamber temperature and humidity. Pressure changes associated with the respiratory waveforms were then converted to volumes (i.e., TV, PIF and PEF) using the algorithm of Epstein and colleagues. Specifically, factoring in chamber temperature and humidity, the cycle analyzers filtered the acquired signals, and BUXCO algorithms (Fine Pointe) generated an array of box flow data that identified a waveform segment as an acceptable breath. From that data vector, the minimum and maximum values were determined. Flows at this point were considered to be “box flow” signals.
The recorded data (1 min bins) and derived parameters, Vt/Ti and Response Area (cumulative percent changes from pre-values) were taken for statistical analyses. The pre-drug 1 min bins excluded occasional marked deviations from resting due to movements or scratching by the rats. These exclusions ensured accurate determinations of baseline parameters. The data are presented as mean±SEM. All data unless other-wise stated (see immediately below) were analyzed by one-way or two-way analysis of variance followed by Student's modified t test with Bonferroni corrections for multiple comparisons between means using the error mean square terms from each ANOVA. A value of P<0.05 denoted the initial level of statistical significance that was modified according to the number of comparisons between means.

[2] = freely moving rats, then d-cystine diEE 500 μmol/kg IV 15 min later
[3] = rats that subsequently received D-Cystine diEE
[4] = rats that subsequently received vehicle, D-Cystine diEE study
[5] = rats that subsequently received D-Cystine
[6] = rats that subsequently received L-NACme
[7] = rats that subsequently received vehicle, D-Cystine study
[8] = rats that subsequently received vehicle, L-NACme study

## CN1CC[C@]23c4c5ccc(O)c4O[C@H]2[C@@H](O)C=C[C@H]3[C@H]1C5 [Morphine, morphine]
Adult male rats; D-cystine diME 500 μmol/kg IV, FIG. 27 study
  force needed to initiate hind-paw withdrawal (Von Frey): 177±8 grams
Adult male rats; L-cystine diME 500 μmol/kg IV, FIG. 25 study
  force needed to initiate hind-paw withdrawal (Von Frey): 88.3 ± 7.0 g
[1]; [2]
  changes in EF50: sustained increase
  changes in expiratory drive (TV/Te): relatively pronounced but shorter-lived decrease
  changes in expiratory time (Te): decreases in Te
  changes in frequency of breathing (Freq): brief increase in Freq that was followed a relatively transient decrease
  changes in inspiratory drive (TV/Ti): prompt and sustained decrease
  changes in inspiratory time (Ti): sustained increases in Ti
  changes in minute ventilation (MV): transient increase in MV that was followed by a sustained decrease
  changes in peak expiratory flow (PEF): lesser decreases
  changes in peak inspiratory flow (PIF): pronounced and sustained decrease
  changes in tidal volume (TV): prompt and sustained decrease
[1]; [3]
  EF50, ml/sec - Total Response (% change): +33.4 ± 15.0 %
  Expiratory Drive (TV/Te), ml/sec - Total Response (% change): −14.6 ± 10.2%
  Expiratory Time (Te), sec - Total Response (% change): −2.0 ± 6.1%
  Frequency, breaths/min - Total Response (% change): −1.9 ± 6.6%
  Inspiratory Drive (TV/Ti), ml/sec - Total Response (% change): −44.5 ± 5.5 %
  Inspiratory Time (Ti), sec - Total Response (% change): +40.2 ± 6.3 %
  Inspiratory Time/Expiratory Time - Total Response (% change): −27.1 ± 6.2 %
  Minute Ventilation, ml/min - Total Response (% change): −28.4 ± 6.4 %
  Peak Expiratory Flow, ml/sec - Total Response (% change): −16.2 ± 5.7 %
  Peak Expiratory Flow/Peak Inspiratory Flow - Total Response (% change): +21.5 ± 6.7 %
  Peak Inspiratory Flow, ml/sec - Total Response (% change): −29.7 ± 2.7 %
  Tidal Volume (TV), ml - Total Response (% change): −26.3 ± 7.4 %
  EF50, ml/sec - Peak Responses (% change): +122 ± 27 %
  Expiratory Drive (TV/Te), ml/sec - Peak Responses (% change): −46.2 ± 7.8 %
  Expiratory Time (Te), sec - Peak Responses (% change): −32.4 ± 17.6%
  Frequency, breaths/min - Peak Responses (% change): −20.0 ± 4.5 %
  Inspiratory Drive (TV/Ti), ml/sec - Peak Responses (% change): −53.7 ± 6.0 %
  Inspiratory Time (Ti), sec - Peak Responses (% change): +41.3 ± 7.1 %
  Inspiratory Time/Expiratory Time - Peak Responses (% change): −41.7 ± 7.8 %
  Minute Ventilation, ml/min - Peak Responses (% change): −48.5 ± 6.0 %
  Peak Expiratory Flow, ml/sec - Peak Responses (% change): −34.8 ± 6.7 %
  Peak Expiratory Flow/Peak Inspiratory Flow - Peak Responses (% change): +26.7 ± 5.4 %
  Peak Inspiratory Flow, ml/sec - Peak Responses (% change): −43.2 ± 2.7 %
  Tidal Volume (TV), ml - Peak Responses (% change): −35.8 ± 6.9 %
[1]; [4]
  EF50, ml/sec - Total Response (% change): +30.5 ± 14.7 %
  Expiratory Drive (TV/Te), ml/sec - Total Response (% change): −22.3 ± 13.6%
  Expiratory Time (Te), sec - Total Response (% change): −4.7 ± 6.0%
  Frequency, breaths/min - Total Response (% change): +0.3 ± 4.3%
  Inspiratory Drive (TV/Ti), ml/sec - Total Response (% change): −44.3 ± 7.1 %
  Inspiratory Time (Ti), sec - Total Response (% change): +38.6 ± 2.9 %
  Inspiratory Time/Expiratory Time - Total Response (% change): −24.1 ± 4.7 %
  Minute Ventilation, ml/min - Total Response (% change): −28.6 ± 7.2 %
  Peak Expiratory Flow, ml/sec - Total Response (% change): −17.4 ± 6.1 %
  Peak Expiratory Flow/Peak Inspiratory Flow - Total Response (% change): +27.6 ± 7.0 %
  Peak Inspiratory Flow, ml/sec - Total Response (% change): −29.5 ± 8.1 %
  Tidal Volume (TV), ml - Total Response (% change): −29.3 ± 7.6 %
  EF50, ml/sec - Peak Responses (% change): +133 ± 42 %
  Expiratory Drive (TV/Te), ml/sec - Peak Responses (% change): −51.5 ± 10.1 %
  Expiratory Time (Te), sec - Peak Responses (% change): −29.3 ± 17.1%
  Frequency, breaths/min - Peak Responses (% change): −21.5 ± 3.4 %
  Inspiratory Drive (TV/Ti), ml/sec - Peak Responses (% change): −52.7 ± 5.4 %
  Inspiratory Time (Ti), sec - Peak Responses (% change): +37.9 ± 3.0 %
  Inspiratory Time/Expiratory Time - Peak Responses (% change): −38.0 ± 4.2 %
  Minute Ventilation, ml/min - Peak Responses (% change): −51.2 ± 6.3 %
  Peak Expiratory Flow, ml/sec - Peak Responses (% change): −38.1 ± 8.5 %
  Peak Expiratory Flow/Peak Inspiratory Flow - Peak Responses (% change): +30.2 ± 3.4 %
  Peak Inspiratory Flow, ml/sec - Peak Responses (% change): −45.6 ± 7.0 %
  Tidal Volume (TV), ml - Peak Responses (% change): −42.9 ± 8.7 %
[1]; [5]
  Frequency: Morphine - first 15 min response (%): −4.7 ± 3.1%
  Frequency: Morphine - peak (+) response (%): +62 ± 7 %
  Frequency: Morphine peak (−) response (%): −23 ± 4 %
  Minute Ventilation: Morphine - first 15 min response (%): −38 ± 5 %
  Minute Ventilation: Morphine - peak (+) response (%): +14 ± 3 %
  Minute Ventilation: Morphine peak (−) response (%): −61 ± 8 %
  Tidal Volume: Morphine - first 15 min response (%): −35 ± 5 %
  Tidal Volume: Morphine - peak (+) response (%): −30 ± 4 %
  Tidal Volume: Morphine peak (−) response (%): −51 ± 6 %
[1]; [6]
  Frequency: Morphine - first 15 min response (%): −4.9 ± 2.8%
  Frequency: Morphine - peak (+) response (%): +42 ± 6 %
  Frequency: Morphine peak (−) response (%): −22 ± 4 %
  Minute Ventilation: Morphine - first 15 min response (%): −35 ± 3 %
  Minute Ventilation: Morphine - peak (+) response (%): +20 ± 6 %
  Minute Ventilation: Morphine peak (−) response (%): −54 ± 4 %
  Tidal Volume: Morphine - first 15 min response (%): −34 ± 3 %
  Tidal Volume: Morphine - peak (+) response (%): −16 ± 6 %
  Tidal Volume: Morphine peak (−) response (%): −40 ± 6 %
[1]; [7]
  Frequency: Morphine - first 15 min response (%): −3.8 ± 2.6%
  Frequency: Morphine - peak (+) response (%): +57 ± 8 %
  Frequency: Morphine peak (−) response (%): −21 ± 3 %
  Minute Ventilation: Morphine - first 15 min response (%): −39 ± 4 %
  Minute Ventilation: Morphine - peak (+) response (%): +9 ± 3 %
  Minute Ventilation: Morphine peak (−) response (%): −60 ± 9 %
  Tidal Volume: Morphine - first 15 min response (%): −37 ± 6 %
  Tidal Volume: Morphine - peak (+) response (%): −32 ± 5 %
  Tidal Volume: Morphine peak (−) response (%): −49 ± 5 %
[1]; [8]
  Frequency: Morphine - first 15 min response (%): −4.0 ± 2.1%
  Frequency: Morphine - peak (+) response (%): +47 ± 6 %
  Frequency: Morphine peak (−) response (%): −24 ± 3 %
  Minute Ventilation: Morphine - first 15 min response (%): −36 ± 3 %
  Minute Ventilation: Morphine - peak (+) response (%): +19 ± 5 %
  Minute Ventilation: Morphine peak (−) response (%): −53 ± 5 %
  Tidal Volume: Morphine - first 15 min response (%): −33 ± 4 %
  Tidal Volume: Morphine - peak (+) response (%): −19 ± 3 %
  Tidal Volume: Morphine peak (−) response (%): −38 ± 5 %
